Measurements: paper PMC12394658, “Discovery of Zharp1-163 as a dual inhibitor of ferroptosis and necroptosis for the treatment of inflammatory disorders and kidney injury” (Cell Death Discovery, 2025)

Columns and labels:
Experiment in all cases: biochemical
Parameters in all cases: Kinase selectivity panel of 81 human kinases, ADP-Glo or HTRF, per cent inhibition at 1 uM
HPK1 = target: T1, HPK1 (Homo sapiens, UniProt Q92918)
T1 construct: gene MAP4K1
Method in brief: (§1)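 Kinase-panel selectivity profiling of 81 kinases with compound at 1000 nM.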

EPHB4 = EPHB4 (Homo sapiens, UniProt P54760)
Method in brief: as §1

MAP3K19 = MAP3K19 (Homo sapiens, UniProt Q56UN5)
Sequence of MAP3K19 (Q56UN5 whole entry): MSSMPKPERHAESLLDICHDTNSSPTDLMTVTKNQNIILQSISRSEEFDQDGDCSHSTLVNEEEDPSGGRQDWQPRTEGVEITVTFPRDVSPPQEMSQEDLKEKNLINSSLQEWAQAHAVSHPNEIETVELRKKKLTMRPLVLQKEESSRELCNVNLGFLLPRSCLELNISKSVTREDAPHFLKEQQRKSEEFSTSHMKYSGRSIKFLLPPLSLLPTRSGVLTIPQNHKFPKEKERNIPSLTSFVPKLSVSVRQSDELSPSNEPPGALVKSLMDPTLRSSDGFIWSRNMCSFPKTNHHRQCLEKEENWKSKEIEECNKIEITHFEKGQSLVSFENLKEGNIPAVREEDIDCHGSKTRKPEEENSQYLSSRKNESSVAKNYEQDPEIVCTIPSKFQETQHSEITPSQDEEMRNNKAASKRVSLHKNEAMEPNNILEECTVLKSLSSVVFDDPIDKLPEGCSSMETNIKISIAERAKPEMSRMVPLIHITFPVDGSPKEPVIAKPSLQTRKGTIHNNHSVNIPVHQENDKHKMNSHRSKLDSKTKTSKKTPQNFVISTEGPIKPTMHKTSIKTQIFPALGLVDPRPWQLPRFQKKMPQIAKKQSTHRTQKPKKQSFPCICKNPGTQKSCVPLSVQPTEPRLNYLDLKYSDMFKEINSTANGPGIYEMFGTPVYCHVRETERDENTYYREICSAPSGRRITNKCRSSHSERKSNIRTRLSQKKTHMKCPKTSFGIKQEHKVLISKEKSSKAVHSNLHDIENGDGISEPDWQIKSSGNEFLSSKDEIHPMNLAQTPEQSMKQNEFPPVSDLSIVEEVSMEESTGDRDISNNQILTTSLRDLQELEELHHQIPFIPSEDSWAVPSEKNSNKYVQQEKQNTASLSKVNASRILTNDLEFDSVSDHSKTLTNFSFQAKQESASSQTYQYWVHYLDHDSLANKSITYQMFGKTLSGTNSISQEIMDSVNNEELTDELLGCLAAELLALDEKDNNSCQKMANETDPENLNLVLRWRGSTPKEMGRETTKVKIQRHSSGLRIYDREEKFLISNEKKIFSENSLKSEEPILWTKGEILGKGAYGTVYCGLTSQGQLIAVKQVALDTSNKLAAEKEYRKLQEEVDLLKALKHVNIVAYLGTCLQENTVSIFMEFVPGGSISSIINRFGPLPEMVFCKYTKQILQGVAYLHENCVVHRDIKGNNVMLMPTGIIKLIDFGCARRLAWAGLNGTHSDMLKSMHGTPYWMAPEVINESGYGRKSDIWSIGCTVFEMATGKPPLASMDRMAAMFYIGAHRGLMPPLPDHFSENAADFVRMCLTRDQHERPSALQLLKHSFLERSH
Method in brief: as §1

Erk7 = target: T2, Erk7 (Homo sapiens, UniProt Q8TD08)
T2 construct: gene MAPK15
T2 sequence (Q8TD08 whole entry): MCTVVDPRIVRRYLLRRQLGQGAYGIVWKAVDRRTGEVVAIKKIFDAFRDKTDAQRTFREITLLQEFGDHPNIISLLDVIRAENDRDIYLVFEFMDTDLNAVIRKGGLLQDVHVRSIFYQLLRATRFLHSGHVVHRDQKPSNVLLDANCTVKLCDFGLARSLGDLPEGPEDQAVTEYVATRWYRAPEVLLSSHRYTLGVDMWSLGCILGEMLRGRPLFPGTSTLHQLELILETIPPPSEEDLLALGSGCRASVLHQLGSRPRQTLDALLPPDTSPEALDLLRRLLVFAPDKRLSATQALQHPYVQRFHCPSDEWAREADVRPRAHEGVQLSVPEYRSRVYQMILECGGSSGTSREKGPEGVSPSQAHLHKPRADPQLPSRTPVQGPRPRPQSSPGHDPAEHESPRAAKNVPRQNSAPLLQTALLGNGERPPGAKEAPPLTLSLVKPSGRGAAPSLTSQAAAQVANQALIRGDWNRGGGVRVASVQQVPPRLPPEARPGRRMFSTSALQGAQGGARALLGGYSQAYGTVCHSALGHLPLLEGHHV
Method in brief: as §1

BRAF = BRAF (Homo sapiens, UniProt P15056)
Sequence of BRAF (P15056 whole entry): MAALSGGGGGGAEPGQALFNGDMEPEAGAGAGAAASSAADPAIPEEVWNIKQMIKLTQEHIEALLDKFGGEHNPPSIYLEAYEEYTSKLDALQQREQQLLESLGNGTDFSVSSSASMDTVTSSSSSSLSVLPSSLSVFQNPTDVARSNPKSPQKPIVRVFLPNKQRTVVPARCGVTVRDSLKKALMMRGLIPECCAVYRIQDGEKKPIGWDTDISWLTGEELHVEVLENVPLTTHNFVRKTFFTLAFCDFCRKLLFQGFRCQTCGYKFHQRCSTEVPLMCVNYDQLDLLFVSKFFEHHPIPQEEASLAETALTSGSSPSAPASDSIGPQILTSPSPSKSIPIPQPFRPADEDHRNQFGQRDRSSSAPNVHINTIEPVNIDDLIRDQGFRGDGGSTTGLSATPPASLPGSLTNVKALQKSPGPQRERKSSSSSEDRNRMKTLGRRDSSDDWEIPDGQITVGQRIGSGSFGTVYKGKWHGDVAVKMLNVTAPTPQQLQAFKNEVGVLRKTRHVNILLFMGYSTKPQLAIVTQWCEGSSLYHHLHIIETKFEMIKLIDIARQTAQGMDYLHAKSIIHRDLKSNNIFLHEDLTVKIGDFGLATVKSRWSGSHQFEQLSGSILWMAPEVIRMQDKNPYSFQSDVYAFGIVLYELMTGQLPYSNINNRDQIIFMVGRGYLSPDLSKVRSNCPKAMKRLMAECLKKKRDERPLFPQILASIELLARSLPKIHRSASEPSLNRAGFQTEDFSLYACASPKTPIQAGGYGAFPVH
Method in brief: as §1

AMPKα1/β1/γ1 = target: T3, AMPKα1/β1/γ1 (Homo sapiens, UniProt Q13131)
T3 construct: gene PRKAA1
Method in brief: as §1

CDK1/CycE1 = CDK1/CycE1 (Homo sapiens, UniProt P06493)
Method in brief: as §1

p70S6K = target: T4, p70S6K (Homo sapiens, UniProt P23443)
T4 construct: gene RPS6KB1
Method in brief: as §1

CDK2/CycE1 = CDK2/CycE1 (Homo sapiens, UniProt P24941)
Method in brief: as §1

PEK = target: T5, PEK (Homo sapiens, UniProt Q9NZJ5)
T5 construct: gene EIF2AK3
Method in brief: as §1

MAP2K1 = MAP2K1 (Homo sapiens, UniProt Q02750)
Method in brief: as §1

JNK1 = target: T6, JNK1 (Homo sapiens, UniProt P45983)
T6 construct: gene MAPK8
T6 sequence (P45983 whole entry): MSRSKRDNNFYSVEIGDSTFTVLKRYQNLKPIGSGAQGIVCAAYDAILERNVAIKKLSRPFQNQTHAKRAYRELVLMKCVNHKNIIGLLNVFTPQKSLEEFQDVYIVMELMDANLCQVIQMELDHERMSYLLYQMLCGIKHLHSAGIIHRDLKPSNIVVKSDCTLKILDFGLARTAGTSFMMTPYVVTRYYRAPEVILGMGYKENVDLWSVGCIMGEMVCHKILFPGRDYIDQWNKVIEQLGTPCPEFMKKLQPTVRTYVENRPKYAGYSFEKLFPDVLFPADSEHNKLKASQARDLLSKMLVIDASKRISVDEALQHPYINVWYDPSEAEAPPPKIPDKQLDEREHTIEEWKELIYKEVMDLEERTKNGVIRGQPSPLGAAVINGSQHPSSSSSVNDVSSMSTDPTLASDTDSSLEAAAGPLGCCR
Method in brief: as §1

MAPKAPK2 = MAPKAPK2 (Homo sapiens, UniProt P49137)
Sequence of MAPKAPK2 (P49137 whole entry): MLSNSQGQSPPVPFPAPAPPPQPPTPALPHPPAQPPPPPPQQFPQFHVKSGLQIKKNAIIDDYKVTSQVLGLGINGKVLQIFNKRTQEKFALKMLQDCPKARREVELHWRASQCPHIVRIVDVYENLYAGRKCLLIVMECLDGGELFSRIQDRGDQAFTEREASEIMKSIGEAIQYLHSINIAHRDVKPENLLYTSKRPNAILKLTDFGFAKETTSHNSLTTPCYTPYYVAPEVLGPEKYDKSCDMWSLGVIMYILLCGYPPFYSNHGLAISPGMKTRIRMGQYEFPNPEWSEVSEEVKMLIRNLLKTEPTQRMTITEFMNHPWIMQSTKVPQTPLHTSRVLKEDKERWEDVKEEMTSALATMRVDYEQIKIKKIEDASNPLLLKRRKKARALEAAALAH
Method in brief: as §1

NEK2 = NEK2 (Homo sapiens, UniProt P51955)
Sequence of NEK2 (P51955 whole entry): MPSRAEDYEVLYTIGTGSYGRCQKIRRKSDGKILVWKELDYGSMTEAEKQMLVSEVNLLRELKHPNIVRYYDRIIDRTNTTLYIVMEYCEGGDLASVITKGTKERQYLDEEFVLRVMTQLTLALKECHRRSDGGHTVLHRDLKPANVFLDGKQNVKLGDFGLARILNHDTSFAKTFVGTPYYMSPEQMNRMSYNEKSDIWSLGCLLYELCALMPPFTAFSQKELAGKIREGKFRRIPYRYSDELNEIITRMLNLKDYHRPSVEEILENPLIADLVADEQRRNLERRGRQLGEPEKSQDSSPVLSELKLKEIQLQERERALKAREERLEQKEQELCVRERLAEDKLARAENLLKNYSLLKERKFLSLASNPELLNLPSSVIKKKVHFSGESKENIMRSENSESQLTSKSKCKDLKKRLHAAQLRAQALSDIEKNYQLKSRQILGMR
Method in brief: as §1

T1 sequence (Q92918 whole entry): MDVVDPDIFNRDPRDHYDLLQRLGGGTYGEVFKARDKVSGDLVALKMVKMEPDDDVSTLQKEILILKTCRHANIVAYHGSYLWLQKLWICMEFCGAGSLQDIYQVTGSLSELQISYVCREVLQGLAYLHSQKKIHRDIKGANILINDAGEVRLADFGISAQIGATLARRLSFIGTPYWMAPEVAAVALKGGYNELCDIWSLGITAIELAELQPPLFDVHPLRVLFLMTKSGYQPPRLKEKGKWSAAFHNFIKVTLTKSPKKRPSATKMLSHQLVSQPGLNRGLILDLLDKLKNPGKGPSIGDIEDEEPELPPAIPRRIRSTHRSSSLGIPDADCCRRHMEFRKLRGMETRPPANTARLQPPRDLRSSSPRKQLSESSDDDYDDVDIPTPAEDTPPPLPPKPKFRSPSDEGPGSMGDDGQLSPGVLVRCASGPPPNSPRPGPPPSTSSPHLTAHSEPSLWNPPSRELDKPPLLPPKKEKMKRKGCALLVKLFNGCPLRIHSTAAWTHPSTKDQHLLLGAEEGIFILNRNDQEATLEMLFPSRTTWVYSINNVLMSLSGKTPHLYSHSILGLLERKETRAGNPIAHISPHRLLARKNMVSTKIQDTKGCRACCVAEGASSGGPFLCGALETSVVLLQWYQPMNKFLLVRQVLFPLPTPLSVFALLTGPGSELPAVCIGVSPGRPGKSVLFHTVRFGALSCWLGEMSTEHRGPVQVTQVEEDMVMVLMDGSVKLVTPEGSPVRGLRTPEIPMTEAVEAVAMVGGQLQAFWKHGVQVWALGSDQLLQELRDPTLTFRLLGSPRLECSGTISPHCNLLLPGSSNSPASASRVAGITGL

Structure (SMILES): Nc1cn2cc(-c3cnc4c(c3)N(C(=O)OC3CCCCC3)CCO4)ccc2n1 [Zharp1-163]
- inhibition at 1 µM (HPK1; replicate Data1): 17%
- inhibition at 1 µM (HPK1; replicate Data2): 2.46%
- inhibition at 1 µM (EPHB4; replicate Data1): 1.63%
- inhibition at 1 µM (EPHB4; replicate Data2): -4.43%
- inhibition at 1 µM (MAP3K19; replicate Data1): -4.19%
- inhibition at 1 µM (MAP3K19; replicate Data2): 10.2%
- inhibition at 1 µM (Erk7; replicate Data1): 5.82%
- inhibition at 1 µM (Erk7; replicate Data2): 0.29%
- inhibition at 1 µM (BRAF; replicate Data1): 6.11%
- inhibition at 1 µM (BRAF; replicate Data2): -8.57%
- inhibition at 1 µM (AMPKα1/β1/γ1; replicate Data1): 12.1%
- inhibition at 1 µM (AMPKα1/β1/γ1; replicate Data2): 6.96%
- inhibition at 1 µM (CDK1/CycE1; replicate Data1): 5.77%
- inhibition at 1 µM (CDK1/CycE1; replicate Data2): 6.95%
- inhibition at 1 µM (p70S6K; replicate Data1): -3.27%
- inhibition at 1 µM (p70S6K; replicate Data2): -3.18%
- inhibition at 1 µM (CDK2/CycE1; replicate Data1): 3.25%
- inhibition at 1 µM (CDK2/CycE1; replicate Data2): -0.65%
- inhibition at 1 µM (PEK; replicate Data1): 1.73%
- inhibition at 1 µM (PEK; replicate Data2): 19.4%
- inhibition at 1 µM (MAP2K1; replicate Data1): -8.67%
- inhibition at 1 µM (MAP2K1; replicate Data2): 0.16%
- inhibition at 1 µM (JNK1; replicate Data1): 6.2%
- inhibition at 1 µM (JNK1; replicate Data2): 5.09%
- inhibition at 1 µM (MAPKAPK2; replicate Data1): -3.5%
- inhibition at 1 µM (MAPKAPK2; replicate Data2): -31.8%
- inhibition at 1 µM (NEK2; replicate Data1): -4.5%
- inhibition at 1 µM (NEK2; replicate Data2): 1.76%
